The values that follow come from BindingDB's records for patent US20250026748 (Repare Therapeutics, 2025).

As usually defined, the pIC50 is −log10 of the IC50, conventionally taken in molar units. A higher pIC50 goes with a small IC50.

pIC50: −log10 of the molar value.

DNA polymerase theta, sequence (O75417 whole entry): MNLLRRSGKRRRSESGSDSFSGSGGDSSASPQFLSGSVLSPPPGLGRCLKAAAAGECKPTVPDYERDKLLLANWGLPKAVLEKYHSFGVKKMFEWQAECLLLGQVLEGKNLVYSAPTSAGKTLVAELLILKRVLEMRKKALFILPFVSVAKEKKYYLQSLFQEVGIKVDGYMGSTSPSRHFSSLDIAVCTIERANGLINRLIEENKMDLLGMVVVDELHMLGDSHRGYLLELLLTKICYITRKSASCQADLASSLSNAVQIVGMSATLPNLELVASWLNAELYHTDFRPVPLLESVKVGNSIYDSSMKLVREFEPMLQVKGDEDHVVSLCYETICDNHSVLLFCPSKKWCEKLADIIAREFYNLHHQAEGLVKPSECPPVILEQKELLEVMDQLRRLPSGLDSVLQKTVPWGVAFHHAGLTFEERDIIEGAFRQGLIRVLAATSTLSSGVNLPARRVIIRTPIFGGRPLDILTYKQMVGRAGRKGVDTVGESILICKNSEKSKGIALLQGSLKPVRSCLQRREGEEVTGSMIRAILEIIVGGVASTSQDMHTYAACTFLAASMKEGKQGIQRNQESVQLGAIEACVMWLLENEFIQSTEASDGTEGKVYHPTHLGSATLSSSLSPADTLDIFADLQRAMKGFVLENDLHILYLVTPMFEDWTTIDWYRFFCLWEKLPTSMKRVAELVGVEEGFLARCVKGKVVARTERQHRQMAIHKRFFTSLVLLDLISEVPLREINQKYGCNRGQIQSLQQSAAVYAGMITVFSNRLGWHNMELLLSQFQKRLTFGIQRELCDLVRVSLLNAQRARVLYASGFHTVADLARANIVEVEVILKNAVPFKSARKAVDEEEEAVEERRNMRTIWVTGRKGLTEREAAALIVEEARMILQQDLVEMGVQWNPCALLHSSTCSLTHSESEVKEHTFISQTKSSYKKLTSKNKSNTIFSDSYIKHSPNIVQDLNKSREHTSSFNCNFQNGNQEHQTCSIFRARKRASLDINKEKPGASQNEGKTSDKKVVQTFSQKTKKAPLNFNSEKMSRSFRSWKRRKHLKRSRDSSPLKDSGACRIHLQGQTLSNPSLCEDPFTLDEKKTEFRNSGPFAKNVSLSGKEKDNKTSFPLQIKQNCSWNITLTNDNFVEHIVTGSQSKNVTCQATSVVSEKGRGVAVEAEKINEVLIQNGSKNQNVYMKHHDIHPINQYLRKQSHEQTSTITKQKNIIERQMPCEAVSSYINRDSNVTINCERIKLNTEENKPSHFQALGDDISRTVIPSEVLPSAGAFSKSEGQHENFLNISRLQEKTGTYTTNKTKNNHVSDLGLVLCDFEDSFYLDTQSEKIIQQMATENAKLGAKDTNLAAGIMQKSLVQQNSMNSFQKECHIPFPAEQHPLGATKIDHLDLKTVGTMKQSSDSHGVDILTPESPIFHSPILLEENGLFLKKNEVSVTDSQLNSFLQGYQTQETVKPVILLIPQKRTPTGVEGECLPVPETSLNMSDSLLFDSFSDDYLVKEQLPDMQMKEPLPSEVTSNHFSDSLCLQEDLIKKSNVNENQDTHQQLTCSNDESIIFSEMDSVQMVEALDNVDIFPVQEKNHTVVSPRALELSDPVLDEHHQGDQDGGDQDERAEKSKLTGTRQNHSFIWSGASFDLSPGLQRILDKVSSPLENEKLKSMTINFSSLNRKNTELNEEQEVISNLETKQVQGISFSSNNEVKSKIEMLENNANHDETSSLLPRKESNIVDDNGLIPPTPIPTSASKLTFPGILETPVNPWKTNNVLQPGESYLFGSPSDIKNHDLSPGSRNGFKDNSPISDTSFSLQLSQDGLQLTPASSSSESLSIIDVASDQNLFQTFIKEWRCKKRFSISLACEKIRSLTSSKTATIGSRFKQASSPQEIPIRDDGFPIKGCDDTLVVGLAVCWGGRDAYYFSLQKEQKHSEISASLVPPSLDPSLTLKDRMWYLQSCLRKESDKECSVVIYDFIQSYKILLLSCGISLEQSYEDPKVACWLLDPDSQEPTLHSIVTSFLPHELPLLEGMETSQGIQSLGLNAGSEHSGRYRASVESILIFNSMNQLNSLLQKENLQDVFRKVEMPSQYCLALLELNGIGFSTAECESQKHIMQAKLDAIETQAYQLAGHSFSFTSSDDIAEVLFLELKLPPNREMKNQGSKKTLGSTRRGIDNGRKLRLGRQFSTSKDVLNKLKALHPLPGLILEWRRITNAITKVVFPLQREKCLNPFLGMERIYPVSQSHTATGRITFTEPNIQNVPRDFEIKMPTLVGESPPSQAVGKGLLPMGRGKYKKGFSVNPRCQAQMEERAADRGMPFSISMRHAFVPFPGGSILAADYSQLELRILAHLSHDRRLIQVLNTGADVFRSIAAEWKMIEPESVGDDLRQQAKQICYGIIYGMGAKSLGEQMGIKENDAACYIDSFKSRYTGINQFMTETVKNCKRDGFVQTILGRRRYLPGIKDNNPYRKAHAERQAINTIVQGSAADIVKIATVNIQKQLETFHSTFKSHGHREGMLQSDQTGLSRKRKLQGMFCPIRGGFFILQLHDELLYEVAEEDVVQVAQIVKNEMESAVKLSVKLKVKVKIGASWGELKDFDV

This experiment concerns the target DNA polymerase theta (Homo sapiens, UniProt O75417). Description: Polθ ATPase Enzymatic Assay (0.5 nM Enzyme Concentration). On the procedure:
Following pre-incubation with inhibitors, DNA (Fork C) at 20 nM and ATP at 100 μM are added to start the reaction. Enzymatic reaction proceeds at rt for 180 min ATP consumption is measured using the ADP-Glo assay from Promega.
`COc1cnc(Cl)cc1-c1cnccc1C(=O)Nc1ncc(C#CC2CC2)s1` [US20250026748, Compound 38] gave a pIC50 of 8.96. Consider `COc1ccc(Cl)cc1-c1cnccc1C(=O)Nc1nnc(C#CC2CC2)s1` [US20250026748, Compound 57], for which the pIC50 is 9.43. The same measure for `COc1ccc(Cl)cc1-c1cn(Cc2nccs2)c(=O)cc1C(=O)Nc1nnc(C#CC2CC2)s1` [US20250026748, Compound 63]: 8.72. `COc1cnc(C(F)F)cc1-c1nc(-c2ccn(C)n2)cnc1C(=O)Nc1nnc(C#CC2CC2)s1` [US20250026748, Compound 140] gave a pIC50 of 7.42. This pIC50 is 1.30 log units lower than that of the molecule before.

Molecule `COc1cnc(Cl)cc1-c1cc(-c2nnc(C)o2)ccc1C(=O)Nc1nnc(C#CC2CC2)s1` [US20250026748, Compound 305] gave a pIC50 of 9.42.

`COc1ccc(C(F)(F)F)cc1-c1cn(C)c(=O)cc1C(=O)Nc1nnc(C#CC2CCOC2)s1` (configuration not stated) [US20250026748, Compound 340] had a pIC50 of 7.92. Turning to `COc1cnc(C(F)F)cc1-c1cc(-c2ccn(C)n2)ncc1C(=O)Nc1nnc(C#Cc2cc(C)[nH]n2)s1` [US20250026748, Compound 370], the pIC50 was 8.54.
